Patent publication US20240218022A1, “ANTI-VISTA MACROCYCLIC PEPTIDES AND COMPOSITIONS” (BRISTOL-MYERS SQUIBB COMPANY, priority 2022, published 2024)
Like-named read-outs stand apart in the source and are kept apart here. Starred links: 1 amine or outer side, 2 acyl side, 3 side chain; linkers in the order of their positions; H or OH if unused. Positions of bridges follow the written chain, without caps; N, C: chain ends. Non-standard residues stand in square brackets, D forms with d. Residues, ends and D or L forms follow the SMILES beside them. ξ: configuration not given here. Phe(3,4,5-F3) = N[C@@H](Cc1cc(F)c(F)c(F)c1)C(=O)O; Phe(4-CONH2) = NC(=O)c1ccc(C[C@H](N)C(=O)O)cc1; γGlu = O=C(O)[C@H](CCC(=O)[*:2])N[*:1]; βAsp = O=C(O)[C@H](CC(=O)[*:2])N[*:1]; Phe(2-Me) = Cc1ccccc1C[C@H](N)C(=O)O; Ile(3ξ) = CCC(C)[C@H](N)C(=O)O; Ahp(2) = CCCCC[C@H](N)C(=O)O; NMeNle = CCCC[C@H](NC)C(=O)O; Tle = CC(C)(C)[C@H](N)C(=O)O; Pip = O=C(O)[C@@H]1CCCCN1; NHexGly = CCCCCCNCC(=O)O; Nle = CCCC[C@H](N)C(=O)O; Orn = NCCC[C@H](N)C(=O)O; Aun = NCCCCCCCCCCC(=O)O; AEEA = NCCOCCOCC(=O)O

Target: T1, mouse VISTA (mVISTA) (Mus musculus, UniProt Q9D659)
T1 construct: expressed in transfected cells; host or cells: Human embryonic kidney 293T cells
T1 sequence (Q9D659 33-308): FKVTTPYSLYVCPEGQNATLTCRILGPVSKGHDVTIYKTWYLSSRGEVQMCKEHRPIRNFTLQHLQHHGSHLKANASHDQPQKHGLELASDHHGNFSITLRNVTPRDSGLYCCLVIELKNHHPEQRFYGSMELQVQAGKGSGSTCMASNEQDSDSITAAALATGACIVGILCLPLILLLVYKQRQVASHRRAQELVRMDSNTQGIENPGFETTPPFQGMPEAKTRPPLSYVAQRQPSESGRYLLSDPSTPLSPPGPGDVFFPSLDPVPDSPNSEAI
Assay: Cell-Based Binding High-Content Assay For mVISTA (HC CBA mVISTA)
Summary of the method: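 293T cells expressing mouse VISTA, with compounds added either after seeding ("no wash") or before seeding and then washed out after 1 h. Biotinylated peptide 2 nM for 30 min at room temperature, then detection with Alexa 647–streptavidin. After fixation with Hoechst stain, plates were high-content imaged; IC50 from four-parameter logistic fit.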

Row | Compound | IC50 (read-out: HC CBA mVISTA IC50) [nM] | also measured
1 | CCCCCCN1CC(=O)N[C@@H](Cc2ccc(O)cc2)C(=O)N[C@@H](CC(C)C)C(=O)N[C@@H](CC(N)=O)C(=O)N[C@@H](CCCNC(=N)N)C(=O)N(C)[C@@H](CCCC)C(=O)N[C@@H](CCCCC)C(=O)N2CCC[C@H]2C(=O)N[C@@H](C(C)C)C(=O)N[C@@H](CO)C(=O)N[C@H](C(=O)NCC(N)=O)CSCC(=O)N[C@@H](Cc2ccccc2C)C(=O)N[C@@H](Cc2ccc(O)cc2)C(=O)N[C@@H](CC(=O)O)C1=O [compound 1204] ({CH2CO}-[Phe(2-Me)]YD[NHexGly]YLNR[NMeNle][Ahp(2)]PVSCG-NH2; thioether N-14) | 18.4 | 
2 | CCCCCCN1CC(=O)N[C@@H](Cc2ccc(O)cc2)C(=O)N[C@@H](CCCC)C(=O)N[C@@H](CC(N)=O)C(=O)N[C@@H](CCCNC(=N)N)C(=O)N[C@@H](CC(C)C)C(=O)N[C@@H](CCCCC)C(=O)N2CCC[C@H]2C(=O)N[C@@H](C(C)C)C(=O)N[C@@H](CC(=O)O)C(=O)N[C@H](C(=O)NCC(=O)O)CSCC(=O)N[C@@H](Cc2cc(F)c(F)c(F)c2)C(=O)N[C@@H](Cc2ccc(O)cc2)C(=O)N[C@@H](CC(=O)O)C1=O [compound 1457] ({CH2CO}-[Phe(3,4,5-F3)]YD[NHexGly]Y[Nle]NRL[Ahp(2)]PVDCG-OH; thioether N-14) |  | IC50 (the 20th table, scaffold drawing 23, read-out: HC CBA mVISTA IC50): 11.6 nM
3 | CCCCCCN1CC(=O)N[C@@H](Cc2ccc(O)cc2)C(=O)N[C@@H](CC(C)C)C(=O)N[C@@H](CC(N)=O)C(=O)N[C@@H](CCCNC(=N)N)C(=O)N(C)[C@@H](CCCC)C(=O)N[C@@H](CCCCC)C(=O)N2CCC[C@H]2C(=O)N[C@@H](C(C)(C)C)C(=O)N[C@@H](CC(=O)O)C(=O)N[C@H](C(=O)N[C@@H](CC(=O)NCCOCCOCC(=O)N[C@@H](CC(=O)O)C(=O)NCCOCCOCC(=O)NCCCCCCCCCCC(=O)O)C(=O)O)CSCC(=O)N[C@@H](Cc2ccc(C(N)=O)cc2)C(=O)N[C@@H](Cc2ccc(O)cc2)C(=O)N[C@@H](CC(=O)O)C1=O [compound 2088] ({CH2CO}-[Phe(4-CONH2)]YD[NHexGly]YLNR[NMeNle][Ahp(2)]P[Tle]DC[βAsp][AEEA]D[AEEA][Aun]-OH; thioether N-14) |  | IC50 (cell-based binding high-content assay, mVISTA, read-out: HC CBA miPrISTA IC50): 16.9 nM
4 | CCCCCCN1CC(=O)N[C@@H](Cc2ccc(O)cc2)C(=O)N[C@@H](CC(C)C)C(=O)N[C@@H](CC(N)=O)C(=O)N[C@@H](CCCN)C(=O)N(C)[C@@H](CCCC)C(=O)N[C@@H](CCCCC)C(=O)N2CCC[C@H]2C(=O)N[C@@H](C(C)(C)C)C(=O)N[C@@H](C(C)C)C(=O)N[C@H](C(=O)NCCOCCOCC(=O)N[C@@H](CCC(=O)NCCOCCOCC(=O)NCCCCCCCCCCC(=O)O)C(=O)O)CSCC(=O)N[C@@H](Cc2ccccc2)C(=O)N[C@@H](Cc2ccc(O)cc2)C(=O)N[C@@H](CC(=O)O)C1=O [compound 2279] ({CH2CO}-FYD[NHexGly]YLN[Orn][NMeNle][Ahp(2)]P[Tle]VC[AEEA][γGlu][AEEA][Aun]-OH; thioether N-14) | 28.6 | 
5 | CCCCCCN1CC(=O)N[C@@H](Cc2ccc(O)cc2)C(=O)N[C@@H](CCCCC)C(=O)N[C@@H](C)C(=O)N[C@@H](CCCNC(=N)N)C(=O)N[C@@H](CC(C)C)C(=O)N[C@@H](CCCCC)C(=O)N2CCC[C@H]2C(=O)N[C@@H](C(C)C)C(=O)N[C@@H](CO)C(=O)N[C@H](C(=O)NCC(=O)O)CSCC(=O)N[C@@H](Cc2ccccc2)C(=O)N[C@@H](Cc2ccc(O)cc2)C(=O)N[C@@H](CC(=O)O)C1=O [Example 1042] ({CH2CO}-FYD[NHexGly]Y[Ahp(2)]ARL[Ahp(2)]PVSCG-OH; thioether N-14) |  | IC50 (293T cells expressing mouse VISTA, competition with biotinylated peptide (2 nM), read-out: HC CBA mVISTA IC50): 36.3 nM

More lines, main results first:

Row | IC50 (read-out: HC CBA mVISTA IC50) [nM] | Compound | also measured
6 | 30.9 | CCCCCCN1CC(=O)N[C@@H](Cc2ccc(O)cc2)C(=O)N[C@@H](CCCC)C(=O)N[C@@H](CC(N)=O)C(=O)N[C@@H](CCCNC(=N)N)C(=O)N(C)[C@@H](CCCC)C(=O)N[C@@H](CCCCC)C(=O)N2CCCC[C@H]2C(=O)N[C@@H](C(C)CC)C(=O)N[C@@H](CO)C(=O)N[C@H](C(=O)N[C@@H](CC(=O)NCCOCCOCC(=O)NCCCCCCCCCCC(=O)O)C(=O)O)CSCC(=O)N[C@@H](Cc2ccccc2)C(=O)N[C@@H](Cc2c[nH]c3ccccc23)C(=O)N[C@@H](CC(=O)O)C1=O (stereo partly shown) [Example 2182] ({CH2CO}-FWD[NHexGly]Y[Nle]NR[NMeNle][Ahp(2)][Pip][Ile(3ξ)]SC[βAsp][AEEA][Aun]-OH; thioether N-14) | 
7 | 14.9 | CCCCCCN1CC(=O)N[C@@H](Cc2ccc(O)cc2)C(=O)N[C@@H](CCCC)C(=O)N[C@@H](CC(N)=O)C(=O)N[C@@H](CCCNC(=N)N)C(=O)N(C)[C@@H](CCCC)C(=O)N[C@@H](CCCCC)C(=O)N2CCC[C@H]2C(=O)N[C@@H](C(C)C)C(=O)N[C@@H](CC(=O)O)C(=O)N[C@H](C(=O)NCCOCCOCC(=O)N[C@@H](CC(=O)NCCOCCOCC(=O)NCCCCCCCCCCC(=O)O)C(=O)O)CSCC(=O)N[C@@H](Cc2ccccc2)C(=O)N[C@@H](Cc2c[nH]c3ccccc23)C(=O)N[C@@H](CC(=O)O)C1=O [Example 2204] ({CH2CO}-FWD[NHexGly]Y[Nle]NR[NMeNle][Ahp(2)]PVDC[AEEA][βAsp][AEEA][Aun]-OH; thioether N-14) | 
